Where a name gives a salt, the structure may show the parent alone.
Biological target: T1, recombinant HAT1 (Homo sapiens, UniProt O14929)
T1 construct: FLAG (DYKDDDDK); made in house; host or cells: HEK-293f freestyle cells (human), forskolin-treated; purified by FLAG immunoprecipitation
T1 sequence (O14929 1-419): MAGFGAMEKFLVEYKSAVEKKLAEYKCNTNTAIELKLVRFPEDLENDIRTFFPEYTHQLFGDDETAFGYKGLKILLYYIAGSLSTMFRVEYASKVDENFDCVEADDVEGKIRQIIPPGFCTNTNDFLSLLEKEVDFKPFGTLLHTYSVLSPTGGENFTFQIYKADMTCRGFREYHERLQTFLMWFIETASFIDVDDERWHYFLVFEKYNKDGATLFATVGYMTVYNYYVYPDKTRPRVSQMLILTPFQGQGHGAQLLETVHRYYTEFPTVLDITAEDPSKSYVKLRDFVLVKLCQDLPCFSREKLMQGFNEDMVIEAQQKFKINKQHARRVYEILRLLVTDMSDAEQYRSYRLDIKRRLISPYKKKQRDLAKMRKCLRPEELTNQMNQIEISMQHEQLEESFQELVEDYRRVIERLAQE
Experiment: HAT1 modulator assay (4-pentynoyl CoA, click chemistry, streptavidin-HRP fluorescence)
Assay type: biochemical
Conditions: HAT1 assay; FIGS. 7B and 9
Excerpt: Provided in FIG. 4 is an exemplary embodiment of an experimental assay to identify modulators of HAT1. To begin the assay, a putative modulator is mixed with the substrate histone H4 N-terminal peptide, the acetyl-like donor 4-pentynonyl CoA, and recombinant HAT1. The H4 N-terminal peptide is the first 23 amino acids of H4 (SEQ. ID No. 1) with a biotin conjugated at the C-terminus of the peptide. Importantly, K5 and K12 of the H4 N-terminal peptide are available for di-acetylation. The 4-pentynoyl CoA is an acetyl CoA derivative having an […] extending from the acetyl group. The recombinant HAT1 is produced in human cells with a peptide tag […] (FLAG®), which is purified via immunoprecipitation.
Each reaction is carried out within a well of a 96-well plate for one hour at 37° C., resulting in pentynoylation of K5 and K12 of the substrate peptide. The reactions are transferred to a neutravidin-coated 96-well plate to capture the biotinylated peptide via a neutravidin-biotin interaction performed for one hour at room temperature. After washing the wells 3X with PBS-tween, the substrate peptides are exposed to biotinylated azide, which reacts with the pentynoyl groups in a copper (I) click chemistry reaction to further functionalize these appendages with biotin, which is performed at 37° C. for 1 hour. Substrates that were acetylated by HAT1 now have an available biotin extending from K5 and K12. After washing the wells 3X with PBS-tween, streptavidin-HRP is added to the well to bind to every available biotin for one hour at 37° C. After washing the wells 3X with PBS-tween, 10-Acetyl-3,7-dihydroxyphenoxazine (Amplex® Red ThermoFisher® Scientific, Waltham, MA) is added as a substrate of HRP and incubated for 30 minutes to produce a detectable fluorescence (570 nm excitation and 585 nm emission), which is measurable utilizing a plate reader.
The HAT1 enzymatic reaction conditions was also optimized, utilizing 0.1M EDTA, 0.1M DTT or both. As portrayed in the right panel of FIG. 5, 0.1M DTT provided the best activity and was utilized in the assay reaction.
FIG. 6 provides HAT1 enzyme kinetics (left panel) and Michaelis-Menten analysis (right panel). To perform the enzyme kinetics, various amounts of input enzyme were tested in 20 uL reaction with the amount of activity measured over time. […] Assay reactions were run with 15 μM of substrate peptide.

Compound | inhibition of HAT1 activity
CC[C@@]1(O)C[C@H](O[C@H]2C[C@H](N(C)C)[C@H](O)[C@H](C)O2)c2c(O)c3c(c(O)c2[C@H]1O[C@H]1C[C@H](N(C)C)[C@H](O)[C@H](C)O1)C(=O)c1cccc(O)c1C3=O [NSC 136044, rhodomycin A] | various ability to inhibit HAT1
COc1cccc2c1C(=O)c1c(O)c3c(c(O)c1C2=O)CC(O)(/C(C)=N/O)CC3OC1CC(N)C(O)C(C)O1 (stereo not drawn) [NSC 143491, daunomycin 3-oxime hydrochloride] | various ability to inhibit HAT1
CC[C@@]1(O)C[C@H](O[C@H]2C[C@H](N(C)C)[C@H](O[C@H]3C[C@H](O)[C@H](O[C@H]4CCC(=O)[C@H](C)O4)[C@H](C)O3)[C@H](C)O2)c2c(cc3c(c2O)C(=O)c2c(O)cccc2C3=O)[C@H]1C(=O)OC [NSC 208734, aclacinomycin A1] | various ability to inhibit HAT1
CC[C@@]1(O)C[C@H](O[C@H]2C[C@H](N(C)C)[C@H](O[C@H]3C[C@@H]4O[C@H]5CC(=O)[C@H](C)O[C@H]5O[C@@H]4[C@H](C)O3)[C@H](C)O2)c2c(cc3c(c2O)C(=O)c2c(O)ccc(O)c2C3=O)[C@H]1C(=O)OC [NSC 243023, cinerubin B] | various ability to inhibit HAT1
CC[C@@]1(O)C[C@H](OC2CC(N(C)C)C(OC3CC(O)C(OC4CC(O)C(O)C(C)O4)C(C)O3)C(C)O2)c2c(cc3c(c2O)C(=O)c2c(O)ccc(O)c2C3=O)[C@H]1C(=O)OC (stereo partly drawn) [NSC 265211, Methyl (1R,2R,4S)-4-[5-[5-(4,5-dihydroxy-6-methyloxan-2-yl)oxy-4-hydroxy-6-methyloxan-2-yl]oxy-4-(dimethylamino)-6-methyloxan-2-yl]oxy-2-ethyl-2,5,7,10-tetrahydroxy-6,11-dioxo-3,4-dihydro-1H-tetracene-1-carboxylate] | various ability to inhibit HAT1
COC1C(C)OC(OC2CC(C)(O)Cc3cc4c(c(O)c32)C(=O)c2c(O)cc3c(c2C4=O)OC2OC3(C)C(O)C(N(C)C)C2O)C(OC)C1(C)OC (stereo not drawn) [NSC 265450, nagalomycin C] | various ability to inhibit HAT1
CC[C@@]1(O)C[C@H](O[C@H]2C[C@H](N(C)C)[C@H](O)[C@H](C)O2)c2c(cc3c(c2O)C(=O)c2c(O)ccc(O)c2C3=O)[C@H]1C(=O)OC [NSC 267229, pyrromycin] | various ability to inhibit HAT1
COc1cccc2c1C(=O)c1c(O)c3c(c(O)c1C2=O)C[C@@](O)(C(C)=O)C[C@@H]3OC1CC(N(Cc2ccccc2)Cc2ccccc2)C(O)C(C)O1.Cl (stereo partly drawn) [NSC 268242, N,N-Dibenzyldaunorubicin] | various ability to inhibit HAT1
CC(C)(COP(=O)(O)OP(=O)(O)OC[C@H]1O[C@@H](n2cnc3c(N)ncnc32)[C@H](O)[C@@H]1OP(=O)(O)O)[C@@H](O)C(=O)NCCC(=O)NCCSC(=O)[C@@H](N)CCCCN [lysyl CoA, reference compound] | did not inhibit HAT1 activity

Same assay, conditions: Michaelis-Menten analysis, H4 peptide substrate varied; FIG. 6

Compound | Km [µM]
H4 peptide substrate: first 23 amino acids of H4 (SEQ. ID No. 1) with a biotin conjugated at the C-terminus [reference compound] | 13

Same assay, conditions: screen of fifty compounds; FIG. 8

Compound | modulation of HAT1 activity (agonist or antagonist)
O=C(O)C(O)C(O)C(=O)O.OCC(O)C(O)C(O)C(O)C(O)c1nc2ccccc2[nH]1 (stereo not drawn) [NSC 56094, 1-(1H-Benzimidazol-2-yl)hexane-1,2,3,4,5,6-hexol; 2,3-dihydroxybutanedioic acid] | agonists
CC1(O)Nc2nc3c(ncn3C3OC(CO)C(O)C3O)c(=O)n2C1O (stereo not drawn) [NSC 309109, 3-[3,4-Dihydroxy-5-(hydroxymethyl)oxolan-2-yl]-6,7-dihydroxy-6-methyl-5,7-dihydroimidazo[1,2-a]purin-9-one] | antagonists
OCC(O)C(OC1OC(CO)C(O)C(O)C1O)C(O)c1cnn(-c2ccccc2)n1 (stereo not drawn) [NSC 405936, 2-(Hydroxymethyl)-6-[1,3,4-trihydroxy-1-(2-phenyltriazol-4-yl)butan-2-yl]oxyoxane-3,4,5-triol] | agonists
nogalarol [NSC 86005] | antagonists

Tested on: CBP/p300 acetyltransferase
Experiment: not given
Conditions: stated as known; cited from earlier work

Compound | inhibition of CBP/p300 acetyltransferase
CC(C)(COP(=O)(O)OP(=O)(O)OC[C@H]1O[C@@H](n2cnc3c(N)ncnc32)[C@H](O)[C@@H]1OP(=O)(O)O)[C@@H](O)C(=O)NCCC(=O)NCCSC(=O)[C@@H](N)CCCCN [lysyl CoA, reference compound] | known inhibitor of CBP/p300 acetyltransferase

Source: patent publication US12625139B2, “Methods for modulation of acetyltransferase activity and applications thereof including treatments” (The Board of Trustees of the Leland Stanford Junior …, priority 2019, dated 2026)
